Data as given in PMC9503778, “Targeted Isolation of Antibiotic Brominated Alkaloids from the Marine Sponge Pseudoceratina durissima Using Virtual Screening and Molecular Networking” (Marine Drugs, 2022).
Where “and” joins values, the source holds several entries; their conditions need not be identical. Identical values can stand only once. Like-named read-outs stand apart in the source and are kept apart here.

Experiments:
[1] = system: C. albicans (yeast) ATCC 90028; assay: Antimicrobial growth inhibition (CO-ADD), C. albicans; type: cell-based, Candida albicans; settings: for MIC / inhibition at 32 µg/mL: Candida albicans; for % inhibition C. albicans: 32 µg/mL, duplicate (n = 2) values; for inhibition at 32 µg/mL: ATCC90028, read-out: % inhibition C. albicans, 32 µg/mL, duplicate (n = 2) values
Protocol: (§1) Compounds 1−3 and 5−12 were assayed against a selection of medically important pathogenic microorganisms (MRSA, E. coli, K. pneumoniae, A. baumanii, P. aeruginosa, C. albicans, C. neoformans), Table 4. […] To the best of our knowledge this compound had not been tested against any drug resistant strain of Gram-positive bacterium until this study.
(§2) The antimicrobial activity testing was performed by the Community for Antimicrobial Drug Discovery (CO-ADD). Compounds were assayed against a range of both Gram negative and Gram positive bacteria (see Supplementary Materials S3) including methicillin-resistant Staphylococcus aureus (MRSA) (G+), Escherichia coli (G-), Klebsiella pneumoniae (G-), Acinetobacter baumannii (G-), Pseudomonas aeruginosa (G-) together with two species of fungus (Candida albicans and Cryptococcus neoformans).
(§3) S3. Antimicrobial activity testing methodology
(§4) The compounds submitted to CO-ADD were evaluated in duplicate (n = 2) against seven microorganisms (five bacteria and two fungi) at a concentration of 32 µg/mL in a 384-well, non-binding surface plate (NBS) for each bacterial/fungal strain, keeping the final DMSO concentration to a maximum of 1% DMSO. All bacteria were cultured in cation-adjusted […]
(§5) Fungal strains were cultured for 3 days on Yeast Extract-Peptone Dextrose (YPD) agar at 30 °C. A yeast suspension of 1 x 10^6 to 5 x 10^6 CFU/mL (as determined by OD530) was prepared from five colonies. The suspension was subsequently diluted and added to each well of the compound-containing plates giving a final cell density of fungi suspension of 2.5 x 10^3 CFU/mL and a total volume of 50 µL. All plates were covered and incubated at 35 °C for 24 h without shaking. […]
(§6) 2 h. The absorbance was measured using a Biotek Synergy HTX plate reader. The percentage of growth inhibition was calculated for each well, using negative control (medium only) and positive control (bacteria without inhibitors) on the same plate as the references. The significance of inhibition values was determined by modified Z-scores, calculated using the median and MAD of the samples (no controls) on the same plate. Samples with inhibition value above 80% and Z-score above 2.5 for either replicate (n = 2 on different plates) were classed as actives.
(§7) Colistin and vancomycin were used as positive bacterial inhibitor standards for Gram-negative and Gram-positive bac-teria, respectively. Fluconazole was used as a positive fungal inhibitor standard for C. albicans and C. neoformans. The antibiotics were provided in four concentrations, with two above and two below its MIC value, and plated into the first eight wells of column 23 of the 384-well NBS plates. The quality control (QC) of the assays was determined by the antimicrobial controls and the Z’-factor (using positive and negative controls). Each plate was deemed to fulfil the qual- […]
(§8) full growth inhibition at their highest concentration, and no growth inhibition at their lowest concentration. The seven […]
(§9) test microorganisms were Staphylococcus aureus MRSA (ATCC 43300), Escherichia coli (ATCC 25922), Klebsiella pneu-moniae (ATCC 700603), Acinetobacter baumanii (ATCC19606), Pseudomonas aeruginosa (ATCC 27853), Candida albicans (ATCC 90028) and Cryptococcus neoformans var. grubii (H99; ATCC 208821).
(§10) S4. Anthelmintic activity testing methodology
(§11) Dose-response evaluations were carried out to estimate the half-maximal inhibitory concentrations (IC50 values) for compounds against Haemonchus contortus (Haecon-5 strain) exsheathed third-stage larvae (xL3s). H. contortus were maintained in experimental sheep and procured in accordance with the institutional animal ethics guidelines and the regulations of Australia (permit no. 1714374; University of Melbourne). Immediately prior to use, third-stage larvae (L3s) were exsheathed and sterilised by incubation in 0.15% (v/v) bleach at 38 °C for 20 min, followed by washes in sterile saline at room temperature (22-24 °C). […]

[2] = system: E. Coli (G-) strain ATCC 25922; assay: Antimicrobial growth inhibition (CO-ADD), E. coli; type: cell-based, Escherichia coli; settings: for % inhibition E. coli: 32 µg/mL; for inhibition at 32 µg/mL / MIC: Escherichia coli
Protocol: as §1, §2, §3
(§12) The compounds submitted to CO-ADD were evaluated in duplicate (n = 2) against seven microorganisms (five bacteria and two fungi) at a concentration of 32 µg/mL in a 384-well, non-binding surface plate (NBS) for each bacterial/fungal strain, keeping the final DMSO concentration to a maximum of 1% DMSO. All bacteria were cultured in cation-adjusted Mueller-Hinton broth (CAMHB) at 37 °C overnight. A sample of each culture was then diluted 40-fold in fresh broth and incubated at 37 °C for 1.5-3 h. The resultant mid-log phase cultures were diluted (CFU/mL measured by OD600), then added to each well of the compound containing plates, giving a cell density of 5x10^5 CFU/mL and a total volume of 50 µL. All the plates were covered and incubated at 37 °C for 18 h without shaking. […] Inhibition of bacterial growth was determined measuring absorbance at 600 nm (OD600) using a Tecan M1000 Pro mon-ochromator plate reader. […]
as §6, §7, §8, §9, §10
as §11, with “in” for “in sterile saline at room temperature (22-24 °C).”

[3] = system: human red blood cells; assay: Haemolysis assay (CO-ADD); type: cell-based
[4] = system: MRSA (G+) strain ATCC 43300; assay: Antimicrobial growth inhibition (CO-ADD), MRSA; type: cell-based, Staphylococcus aureus; settings: for inhibition at 32 µg/mL / MIC: Staphylococcus aureus
Protocol: as §1, §2, §3, §12, §6, §7, §8, §9, §10
as §11, with “in” for “in sterile saline at room temperature (22-24 °C).”

[5] = system: K. pneumoniae (G-) strain ATCC 700603; assay: Antimicrobial growth inhibition (CO-ADD), K. pneumoniae; type: cell-based, Klebsiella pneumoniae; settings: for % inhibition K. pneumoniae: 32 µg/mL; for inhibition at 32 µg/mL / MIC: Klebsiella pneumoniae
Protocol: as §1, §2, §3, §12, §6, §7, §8, §9, §10
as §11, with “in” for “in sterile saline at room temperature (22-24 °C).”

[6] = system: C. neoformans var. grubii strain ATCC 208821; assay: Antimicrobial growth inhibition (CO-ADD), C. neoformans; type: cell-based, Cryptococcus neoformans; settings: for % inhibition C. neoformans: 32 µg/mL; for inhibition at 32 µg/mL: Cryptococcus neoformans
Protocol: as §1, §2, §3, §4, §5
as §6, with “Growth inhibition of C. albicans was determined measuring absorbance at 530 nm (OD530), while the growth inhibition of C. neoformans was determined measuring the difference in absorbance between 600 and 570 nm (OD600-570), after the addition of resazurin (0.001% final concentration) and incubation at 35 °C for an additional 2 h.” for “2 h.”
as §7, §8, §9, §10
Dose-response evaluations were carried out to estimate the half-maximal inhibitory concentrations (IC50 values) for compounds against Haemonchus contortus (Haecon-5 strain) exsheathed third-stage larvae (xL3s). H. contortus were maintained in experimental sheep and procured in accordance with the institutional animal ethics guidelines and the […]

[7] = ATCC90028, ATCC 90028, read-out: MIC C. albicans
[8] = ATCC25922, read-out: % inhibition E. coli, 32 µg/mL, duplicate (n = 2) values
[9] = ATCC25922, ATCC 25922, MIC = concentration at which growth inhibited by ≥80%, read-out: MIC E. coli
[10] = 32 µg/mL, duplicate (n = 2) values
[11] = read-out: % inhibition MRSA, 32 µg/mL, duplicate (n = 2) values
[12] = ATCC 43300, MIC = concentration at which growth inhibited by ≥80%, range 0.25−32 µg/mL, read-out: MIC MRSA
[13] = ATCC700603, read-out: % inhibition K. pneumoniae, 32 µg/mL, duplicate (n = 2) values
[14] = ATCC700603, ATCC 700603, read-out: MIC K. pneumoniae
[15] = ATCC25922, 32 µg/mL, duplicate (n = 2) values, read-out: % inhibition E. coli
[16] = ATCC700603, 32 µg/mL, duplicate (n = 2) values, read-out: % inhibition K. pneumoniae

Row | SMILES | MIC [1, 7] | % inhibition E. coli ([2]; duplicate (n = 2) values) | inhibition at 32 µg/mL [2, 8] | MIC [2, 9] | Haemolysis (HC10) [3] | % inhibition MRSA [4, 10] | inhibition at 32 µg/mL [4, 11] | MIC [4, 12] | % inhibition K. pneumoniae ([5]; duplicate (n = 2) values) | MIC [5, 14] | % inhibition C. neoformans ([6]; duplicate (n = 2) values) | % inhibition C. albicans [1] | inhibition at 32 µg/mL [5, 16] | further results
1 | COC1=C(Br)[C@H](O)[C@@]2(C=C1Br)CC(C(=O)NCCCOc1c(Br)cc(CCN)cc1Br)=NO2 [Compound 11, araplysillin I] | > 32 µg/mL | 8.5% | 15.9% | > 32 µg/mL | >32 µg/mL | 5.7% | 11.3% | > 32 µg/mL | 17.0% | > 32 µg/mL | 7.8% |  |  | inhibition at 32 µg/mL [5, 13]: 12.2%; inhibition at 32 µg/mL ([6]; ATCC208821, read-out: % inhibition C. neoformans, 32 µg/mL, duplicate (n = 2) values): 7.6%
2 | COC1(OC)C(Br)=CC(O)(CC(N)=O)C=C1Br [Compound 6, 2-(3,5-dibromo-1-hydroxy-4,4-dimethoxycyclohexa-2,5-dien-1-yl)acetamide] | > 32 µg/mL | 15.6% |  | > 32 µg/mL | >32 µg/mL | 3.3% and 7.0% |  | > 32 µg/mL | 6.4% | > 32 µg/mL | 11.1% and 2.0% | 0.6% and 4.6% | 12.3% | inhibition at 32 µg/mL [2, 15]: 14.6%
3 | COC1=C(Br)[C@H](O)[C@](O)(CC#N)C=C1Br [Compound 1, (+)-aeroplysinin-1] |  | 95.2% | 93.7% |  | >32 µg/mL | 96.7% | 95.9% |  | −2.8% and −3.3% |  | −6.6% and 0.0% | 9.8% |  | inhibition at 32 µg/mL [1]: 9.5%; MIC ([1]; ATCC90028, read-out: MIC C. albicans): > 32 µg/mL; MIC ([2]; ATCC25922, read-out: MIC E. coli): 32 µg/mL; inhibition at 32 µg/mL ([2]; ATCC25922, read-out: mean value of % inhibition against E. coli, 32 µg/mL, mean of duplicates): 94.5%; MIC MRSA ([4]; ATCC 43300, MIC = concentration at which growth inhibited by ≥80%, range 0.25−32 µg/mL): 32 µg/mL; MIC ([4]; read-out: MIC MRSA, ATCC 43300, MIC = concentration at which growth inhibited by ≥80%, range 0.25−32 µg/mL): < 32 µg/mL; inhibition at 32 µg/mL ([4]; read-out: mean value of % inhibition against MRSA, 32 µg/mL, mean of duplicates): 96.3%; MIC ([5]; ATCC700603, read-out: MIC K. pneumoniae): > 32 µg/mL
4 | NC(=O)Cc1c(O)cc(Br)c(O)c1Br [Compound 9, subereaphenol A] | > 32 µg/mL | 1.5% and 9.6% |  | > 32 µg/mL | 1.032 µg/mL |  |  | > 32 µg/mL | 15.5% and 6.6% | > 32 µg/mL | 11.9% |  |  | inhibition at 32 µg/mL ([6]; ATCC208821, 32 µg/mL, duplicate (n = 2) values, read-out: % inhibition C. neoformans): 11.2%
5 | COC1=C(Br)[C@H](O)[C@@]2(C=C1Br)CC(C(=O)NCCCOc1c(Br)cc(CCNC(=O)C3=NO[C@]4(C=C(Br)C(OC)=C(Br)[C@@H]4O)C3)cc1Br)=NO2 [Compound 5, 11,17-deoxyfistularin-3] | > 32 µg/mL | 9.5% | 8.1% | > 32 µg/mL | >32 µg/mL | 19.8% | 10% | > 32 µg/mL | 8.7% | > 32 µg/mL | 10.4% and 3.8% | 3.3% |  | inhibition at 32 µg/mL [1]: 2.5%; inhibition at 32 µg/mL [5, 13]: 6.5%
6 | COC1=C(Br)[C@H](O)[C@@]2(C=C1Br)CC(C(=O)NCCCCNC(=O)C1=NO[C@]3(C=C(Br)C(OC)=C(Br)[C@@H]3O)C1)=NO2 [Compound 2, aerothionin] | > 32 µg/mL | 0.9% and 2.3% |  | > 32 µg/mL | >32 µg/mL | −1.5% and 6.1% |  | > 32 µg/mL | 10.9% | > 32 µg/mL |  | 0.5% and 4.2% | 10.4% | 
7 | COc1c(Br)cc(CC#N)c(O)c1Br [Compound 8, 2-(3,5-dibromo-2-hydroxy-4-methoxyphenyl)acetonitrile] | > 32 µg/mL | 16.9% |  | > 32 µg/mL | >32 µg/mL | 8.5% |  | > 32 µg/mL | 12.5% | > 32 µg/mL | 11.1% and 4.0% |  | 10.3% | inhibition at 32 µg/mL [2, 15]: 12.7%; inhibition at 32 µg/mL ([4]; 32 µg/mL, duplicate (n = 2) values, read-out: % inhibition MRSA): 7.6%
